Results from patent US20260258025A1, “INHIBITORS OF TDP-43 AND TAU AGGREGATION” (Aquinnah Pharmaceuticals, inc., priority 2023, published 2026).

test system: TDP-43 aggregation; experiment: TDP-43 aggregation assay in SY5Y TDP-43WT cells (high content imaging); type: cell-based; details: Homo sapiens, tetracycline induction 24 hrs, 1 hour compound pre-treatment, sodium arsenite 23 hrs, 8-point dose curve, percentage of cells with TDP-43 aggregates, read-out: IC50, Inhibition of TDP-43 Aggregation
Experimental: Exemplary compounds disclosed herein were evaluated for efficacy in inhibiting TDP-43 inclusions cellular imaging-based assays.
The cellular model was in human neuroblastoma SH SYSY cells (ATCC, cat #: CRL-2266). The parent cell line was first engineered to stably express a tetracycline repressor protein (designated as TREx-SY5Y cells, customer cell line development by ThermoFisher). Wild-type human TDP-43 with a C-terminus eGFP tag was synthesized and cloned into pcDNA5/TO expression vector (ThermoFisher). The plasmid was transfected into TREx-SY5Y cells using Lipofectamine 2000 and hygromycin resistant colonies were selected. Expression of TDP-43WT::eGFP was examined under fluorescent microscopy and Western blot upon tetracycline induction. The clone that was used for TDP-43 aggregation assay is referred to as SY5Y TDP-43WT cells hereafter.
Compound inhibition of TDP-43 aggregation was tested in an 8-point dose curve in 96-well format. Briefly, TDP-43WT::eGFP expression was induced with […] for 24 hrs (SY5Y TDP-43WT cells). The cells were then pre-treated for 1 hour with exemplary compounds before adding sodium arsenite to a final concentration of […] and incubated for another 23 hrs. At the end of the treatment the cell monolayers were washed in PBS and fixed in 4% paraformaldehyde (PFA), diluted from 16% stock (Electron Microscopy Sciences cat: #15710-S). The inhibitory effect on TDP-43 aggregation was measured using CellInsight CX7 high content imager (ThermoFisher). The percentage of cells with TDP-43 aggregates was calculated based on the total number of cells identified by DAPI staining. An 8-point dose response curve was generated, and the IC50 for each compound tested was determined (Table 3).
In Table 3 below, A indicates an IC50 (nM)<500 nM, B indicates an IC50 (nM) 500 nM to <1000 nM, C indicates an IC50 (nM) 1000 nM to <2000 nM, D indicates an IC50 (nM) 2000 nM to <6000 nM, and E indicates an IC50 (nM) 6000 nM to ≤10000 nM.

SMILES	IC50 [nM]
Cc1cc(-c2ccc3ccccc3c2)sc1C(=O)N1CC[C@H](N)C1 [Compound 246]	6000 to 10000
COCCCN1CCC(c2ccc(-c3cc(C)c(C(=O)N4CC[C@H](N)C4)s3)cc2F)CC1 [Compound 275, (S)-(3-aminopyrrolidin-1-yl)(5-(3-fluoro-4-(1-(3-methoxypropyl)piperidin-4-yl)phenyl)-3-methylthiophen-2-yl)methanone]	< 500
Cc1cc(-c2ccc3c(c2)COCC3)sc1C(=O)N1CC[C@H](N)C1 [Compound 195, (S)-(3-aminopyrrolidin-1-yl)[5-(isochroman-7-yl)-3-methylthiophen-2-yl]methanone]	1000 to 2000
CCc1ccc(-c2cc(C)c(C(=O)N3CC[C@H](N)C3)s2)cc1C [Compound 220]	6000 to 10000
COC(C)(C)CN1CCC(c2ccc(-c3cc(C)c(C(=O)N4CC[C@H](N)C4)s3)cc2F)CC1 [Compound 254, (S)-(3-aminopyrrolidin-1-yl)(5-(3-fluoro-4-(1-(2-methoxy-2-methylpropyl)piperidin-4-yl)phenyl)-3-methylthiophen-2-yl)methanone]	< 500
CN1CCC(c2ccc(-c3cc(Cl)c(C(=O)N4CC[C@H](N)C4)s3)cc2F)CC1 [Compound 280, (S)-(3-aminopyrrolidin-1-yl)(3-chloro-5-(3-fluoro-4-(1-methylpiperidin-4-yl)phenyl)thiophen-2-yl)methanone]	< 500
COc1cc(-c2ccc(C3CCN(C4CCOCC4)CC3)c(Cl)c2)sc1C(=O)N1CC[C@H](N)C1 [Compound 272, (S)-(3-aminopyrrolidin-1-yl)(5-(3-chloro-4-(1-(tetrahydro-2H-pyran-4-yl)piperidin-4-yl)phenyl)-3-methoxythiophen-2-yl)methanone]	1000 to 2000
Cc1cc(-c2ccc(C3=CCOCC3)cc2)sc1C(=O)N1CC[C@H](N)C1 [Compound 236]	< 500
Cc1cc(-c2ccc(Cl)c(Cl)c2)sc1C(=O)N1CC[C@H](N)C1 [Compound 244]	2000 to 6000
N[C@H]1CCN(C(=O)c2sc(-c3ccc(C4CCN(CCO)CC4)c(F)c3)cc2Cl)C1 [Compound 263, (S)-(3-aminopyrrolidin-1-yl)(3-chloro-5-(3-fluoro-4-(1-(2-hydroxyethyl)piperidin-4-yl)phenyl)thiophen-2-yl)methanone]	< 500
Cc1cc(-c2ccc(C3(N(C)C)CCC3)cc2)sc1C(=O)N1CC[C@H](N)C1 [Compound 187, (S)-(3-aminopyrrolidin-1-yl)(5-(4-(1-(dimethylamino)cyclobutyl)phenyl)-3-methylthiophen-2-yl)methanone]	500 to 1000
COCCCN1CCC(c2ccc(-c3cc(Cl)c(C(=O)N4CC[C@H](N)C4)s3)cc2F)CC1 [Compound 268, (S)-(3-aminopyrrolidin-1-yl)(3-chloro-5-(3-fluoro-4-(1-(3-methoxypropyl)piperidin-4-yl)phenyl)thiophen-2-yl)methanone]	< 500
CCc1cc(-c2ccc(C3CCN(C4CCOCC4)CC3)c(F)c2)sc1C(=O)N1CC[C@H](N)C1 [Compound 291, (S)-(3-aminopyrrolidin-1-yl)(3-ethyl-5-(3-fluoro-4-(1-(tetrahydro-2H-pyran-4-yl)piperidin-4-yl)phenyl)thiophen-2-yl)methanone]	< 500
Cc1cc(-c2cc(Cl)cc(Cl)c2)sc1C(=O)N1CC[C@H](N)C1 [Compound 245]	6000 to 10000

Now from value to compound:

IC50 [nM]	SMILES
2000 to 6000	Cc1cc(-c2ccc(COC3CCCCC3)cc2)sc1C(=O)N1CC[C@H](N)C1 [Compound 203, (S)-(3-aminopyrrolidin-1-yl){5-[4-(cyclohexyloxymethyl)phenyl]-3-methylthiophen-2-yl}methanone]
< 500	CCN1CCC(c2ccc(-c3cc(C)c(C(=O)N4CC[C@H](N)C4)s3)cc2F)CC1 [Compound 281, (S)-(3-aminopyrrolidin-1-yl)(5-(4-(1-ethylpiperidin-4-yl)-3-fluorophenyl)-3-methylthiophen-2-yl)methanone]
< 500	N[C@H]1CCN(C(=O)c2sc(-c3ccc(C4CCN(C5CCOC5)CC4)c(F)c3)cc2Cl)C1 (stereo partly drawn) [Compound 267, ((S)-3-aminopyrrolidin-1-yl)(3-chloro-5-(3-fluoro-4-(1-(tetrahydrofuran-3-yl)piperidin-4-yl)phenyl)thiophen-2-yl)methanone]
500 to 1000	COc1cc(-c2ccc(C3CCN(C4CCOCC4)CC3)cc2)sc1C(=O)N1CC[C@H](N)C1 [Compound 293]
< 500	Cc1cc(-c2ccc(C3CCN(CCO)CC3)c(F)c2)sc1C(=O)N1CC[C@H](N)C1 [Compound 262, (S)-(3-aminopyrrolidin-1-yl)(5-(3-fluoro-4-(1-(2-hydroxyethyl)piperidin-4-yl)phenyl)-3-methylthiophen-2-yl)methanone]
< 500	Cc1cc(-c2ccc(C3CCOCC3)cc2)sc1C(=O)N1CC[C@H](N)C1 [Compound 243]
< 500	Cc1cc(-c2ccc(C3CCN(C4CSC4)CC3)cc2)sc1C(=O)N1CC[C@H](N)C1 [Compound 172, (S)-(3-aminopyrrolidin-1-yl){3-methyl-5-[4-(1-thietan-3-ylpiperidin-4-yl)phenyl]thiophen-2-yl} methanone]
< 500	Cc1ccc(-c2cc(C)c(C(=O)N3CC[C@H](N)C3)s2)cc1 [Compound 225]
< 500	N[C@H]1CCN(C(=O)c2sc(-c3ccc(C4CCN(C5CCOCC5)CC4)cc3)cc2Cl)C1 [Compound 294, (S)-(3-aminopyrrolidin-1-yl)(3-chloro-5-(4-(1-(tetrahydro-2H-pyran-4-yl)piperidin-4-yl)phenyl)thiophen-2-yl)methanone]
< 500	Cc1cc(-c2ccc(C3CCN(C4CCOCC4)CC3)c(F)c2)sc1C(=O)N1CC[C@H](N)C1 [Compound 296, (S)-(3-aminopyrrolidin-1-yl)(5-(3-fluoro-4-(1-(tetrahydro-2H-pyran-4-yl)piperidin-4-yl)phenyl)-3-methylthiophen-2-yl)methanone]
500 to 1000	Cc1cc(-c2ccc(C3CCNCC3)cc2)sc1C(=O)N1CC[C@H](N)C1 [Compound 205, (S)-(3-aminopyrrolidin-1-yl){3-methyl-5-[4-(piperidin-4-yl)phenyl]thiophen-2-yl}methanone]
2000 to 6000	Cc1cc(-c2ccc(N3CCC(C)CC3)cc2)sc1C(=O)N1CC[C@H](N)C1 [Compound 184, (S)-(3-aminopyrrolidin-1-yl)(3-methyl-5-(4-(4-methylpiperidin-1-yl)phenyl)thiophen-2-yl)methanone]
500 to 1000	Cc1cc(-c2ccc(N3CCOCC3)cc2)sc1C(=O)N1CC[C@H](N)C1 [Compound 239]
< 500	Cc1cc(-c2ccc(C3CCN(C4CCC4)CC3)c(F)c2)sc1C(=O)N1CC[C@H](N)C1 [Compound 279, (S)-(3-aminopyrrolidin-1-yl)(5-(4-(1-cyclobutylpiperidin-4-yl)-3-fluorophenyl)-3-methylthiophen-2-yl)methanone]
< 500	Cc1cc(-c2ccc(C3CCN(C4CCOCC4)CC3)c(Cl)c2)sc1C(=O)N1CC[C@H](N)C1 [Compound 287, (S)-(3-aminopyrrolidin-1-yl)(5-(3-chloro-4-(1-(tetrahydro-2H-pyran-4-yl)piperidin-4-yl)phenyl)-3-methylthiophen-2-yl)methanone]
< 500	N[C@H]1CCN(C(=O)c2sc(-c3ccc(C4CCN(C5CCOCC5)CC4)c(F)c3)cc2Cl)C1 [Compound 295, (S)-(3-aminopyrrolidin-1-yl)(3-chloro-5-(3-fluoro-4-(1-(tetrahydro-2H-pyran-4-yl)piperidin-4-yl)phenyl)thiophen-2-yl)methanone]
< 500	Cc1cc(-c2ccc(N3CCN(C)CC3)cc2)sc1C(=O)N1CC[C@H](N)C1 [Compound 185, (S)-(3-aminopyrrolidin-1-yl)(3-methyl-5-(4-(4-methylpiperazin-1-yl)phenyl)thiophen-2-yl)methanone]
< 500	Cc1cc(-c2ccc(C3CCN(C4CCOC4)CC3)c(F)c2)sc1C(=O)N1CC[C@H](N)C1 (stereo partly drawn) [Compound 274, ((S)-3-aminopyrrolidin-1-yl)(5-(3-fluoro-4-(1-(tetrahydrofuran-3-yl)piperidin-4-yl)phenyl)-3-methylthiophen-2-yl)methanone]
2000 to 6000	Cc1cc(-c2ccc(C(C)C)cc2)sc1C(=O)N1CC[C@H](N)C1 [Compound 230]
< 500	C#CCOCCN1CCC(c2ccc(-c3cc(C)c(C(=O)N4CC[C@H](N)C4)s3)cc2)CC1 [Compound 288, (S)-(3-amino-pyrrolidin-1-yl)(3-methyl-5-(4-(1-(2-(prop-2-yn-1-yloxy)ethyl)piperidin-4-yl)phenyl)thiophen-2-yl) methanone]
< 500	Cc1cc(-c2ccc(C3CCN(CC(C)(C)O)CC3)c(F)c2)sc1C(=O)N1CC[C@H](N)C1 [Compound 257, (S)-(3-aminopyrrolidin-1-yl)(5-(3-fluoro-4-(1-(2-hydroxy-2-methylpropyl)piperidin-4-yl)phenyl)-3-methylthiophen-2-yl)methanone]
